Measured values: patent publication US20250129088A1, “CEREBLON E3 UBIQUITIN LIGASE INHIBITOR” (Gan & Lee Pharmaceuticals Co., Ltd., priority 2022, published 2025)

Assays:
Assay type in all cases: cell-based
K562 cells = assay: K562 cell proliferation inhibition, CCK-8; conditions: K562, 4 days, Table 12, positive control dBET6
Procedure: The complete medium required for K562 cells is IMDM (ATCC, Product number: 30-2005) basal medium containing 10% fetal bovine serum. K562 cells were seeded in a 96-well plate at a density of 7,500 cells/well, and different concentrations of the compound of the present invention and positive control samples Alisertib (source: Bide Pharmaceuticals) and dBET6 (source: Bide Pharmaceuticals) were prepared to treat the cells. The cells were incubated at a 37° C., 5% CO2 cell culture incubator for 4 days.
Cell viability was detected using the CCK-8 kit (Beyotime, Product number: C0040) according to the manufacturer's instructions. According to the inhibition rate, GraphPad Prism software was used to calculate the IC50 value of each compound for 4 days, and the results are shown in Table 11-12.

VCaP cells = assay: VCaP cell proliferation inhibition, CCK-8; conditions: Homo sapiens, 168 h, 7 days
From the text: The complete medium required for VCaP cells is DMEM high glucose (Gibco, Product number: 11995-065) basal medium containing 10% fetal bovine serum. […] Cell viability was detected using the CCK-8 kit (Beyotime, Product number: C0040) according to the manufacturer's instructions.

LNCaP FGC cells = assay: LNCaP FGC cell proliferation inhibition, CCK-8; conditions: Homo sapiens, 96 h, 4 days
From the text: The complete medium required for LNCaP FGC cells is RPMI 1640 (ATCC, Product number: 30-2001) basal medium containing 10% fetal calf serum. […] Cell viability was detected using the CCK-8 kit (Beyotime, Product number: C0040) according to the manufacturer's instructions.

SMILES	IC50 (K562 cells)	IC50 (K562 cells; Homo sapiens, 96 h)	IC50 (VCaP cells)	IC50 (LNCaP FGC cells)
Cc1sc2c(c1C)C(c1ccc(Cl)cc1)=N[C@@H](CC(=O)NCCCCCCCCNC(=O)COc1cccc3c1C(=O)N(C1CCC(=O)NC1=O)C3=O)c1nnc(C)n1-2 (stereo partly drawn) [dBET6, reference compound]	1 nM	–	–	–
Cc1nc(Nc2ncc(C(=O)Nc3c(C)cccc3Cl)s2)cc(N2CCN(CCOCCC(=O)N3CC4(CCc5cc6c(cc5O4)C(=O)N(C4CCC(=O)NC4=O)C6=O)C3)CC2)n1 (stereo not drawn) [PROTAC 11, N-(2-chloro-6-methylphenyl)-2-((6-(4-(2-(3-(7′-(2,6-dioxopiperidin-3-yl)-6′,8′-dioxo-4′,6′,7′,8′-tetrahydro-3′H-spiro[azetidine-3,2′-pyrano[2,3-f]isoindol]-1-yl)-3-oxopropoxy)ethyl)piperazin-1-yl)-2-methylpyrimidin-4-yl)amino)thiazole-5-carboxamide]	–	66 nM	–	–
Cc1nc(Nc2ncc(C(=O)Nc3c(C)cccc3Cl)s2)cc(N2CCN(CCOCCC(=O)N3CCC4(CCc5cc6c(cc5O4)C(=O)N(C4CCC(=O)NC4=O)C6)CC3)CC2)n1 (stereo not drawn) [PROTAC 13, N-(2-chloro-6-methylphenyl)-2-((6-(4-(2-(3-(7′-(2,6-dioxopiperidin-3-yl)-8′-oxo-4′,6′,7′,8′-tetrahydro-3′H-spiro[piperidine-4,2′-pyrano[2,3-f]isoindole]-1-yl)-3-oxopropoxy)ethyl)piperazin-1-yl)-2-methylpyrimidin-4-yl)amino)thiazole-5-carboxamide]	–	20 nM	–	–
N#Cc1ccc(O[C@H]2CC[C@H](NC(=O)c3ccc(N4CCC(CN5CCC6(CC5)Cc5cc7c(cc5O6)C(=O)N(C5CCC(=O)NC5=O)C7=O)CC4)nn3)CC2)cc1Cl (stereo partly drawn) [PROTAC 66, N-((1r,4r)-4-(3-chloro-4-cyanophenoxy)cyclohexyl)-6-(4-((6-(2,6-dioxopiperidine-3-yl)-5,7-dioxo-3,5,6,7-tetrahydrospiro[furo[2,3-f]isoindole-2,4′-piperidinyl]-1′-yl)methyl)piperidin-1-yl) pyridazine-3-carboxamide]	–	–	50 nM	3 µM
CC1(C)C(=O)N(c2ccc(C#N)c(C(F)(F)F)c2)C(=S)N1c1ccc(C(=O)N2CC3(CC(N4CCC5(CCc6cc7c(cc6O5)C(=O)N(C5CCC(=O)NC5=O)C7=O)CC4)C3)C2)c(F)c1 (stereo not drawn) [PROTAC 85, 4-(3-(4-(6-(7′-(2,6-dioxopiperidin-3-yl)-6′,8′-dioxo-4′,6′,7′,8′-tetrahydro-3′H-spiro[piperidin-4,2′-pyrano[2,3-f]isoindol]-1-yl)-2-azaspiro[3.3]heptane-2-carbonyl)-3-fluorophenyl)-4,4-dimethyl-5-oxo-2-thioimidazolidin-1-yl)-2-(trifluoromethyl)benzonitrile]	–	–	620 nM	27.9 µM
CC1(C)C(=O)N(c2ccc(C#N)c(C(F)(F)F)c2)C(=S)N1c1ccc(C(=O)N2CCC3(CCC(N4CCC5(CC4)COc4cc6c(cc4C5)C(=O)N(C4CCC(=O)NC4=O)C6=O)CC3)C2)c(F)c1 (stereo not drawn) [PROTAC 74, 4-(3-(4-(8-(7′-(2,6-dioxopiperidin-3-yl)-6′ 8′-dioxo-4′,6′,7′,8′-tetrahydro-2′H-spiro[piperidin-4,3′-pyrano[2,3-f]isoindol]-1-yl)-2-azaspiro[4.5]decane-2-carbonyl)-3-fluorophenyl)-4,4-dimethyl-5-oxo-2-thioimidazolidin-1-yl)-2-(trifluoromethyl)benzonitrile]	–	–	3260 nM	2.66 µM
CC1(C)C(=O)N(c2ccc(C#N)c(C(F)(F)F)c2)C(=S)N1c1ccc(C(=O)N2CCC(N3CCC4(CC3)COc3cc5c(cc34)C(=O)N(C3CCC(=O)NC3=O)C5=O)CC2)c(F)c1 (stereo not drawn) [PROTAC 80, 4-(3-(4-(4-(6-(2,6-dioxopiperidin-3-yl)-5,7-dioxo-6,7-dihydro-2H,5H-spiro[furo[2,3-f]isoindole-3,4′-piperidin]-1′-yl)piperidine-1-carbonyl)-3-fluorophenyl)-4,4-dimethyl-5-oxo-2-thioimidazolidin-1-yl)-2-(trifluoromethyl)benzonitrile]	–	–	9480 nM	3.24 µM
Cc1nc(Nc2ncc(C(=O)Nc3c(C)cccc3Cl)s2)cc(N2CCN(CCOCCC(=O)N3CC4(CCc5cc6c(cc5O4)CN(C4CCC(=O)NC4=O)C6=O)C3)CC2)n1 (stereo not drawn) [PROTAC 16, N-(2-chloro-6-methylphenyl)-2-((6-(4-(2-(3-(7′-(2,6-dioxopiperidin-3-yl)-6′-oxo-4′,6′,7′,8′-tetrahydro-3′H-spiro[azetidine-3,2′-pyrano[2,3-f]isoindole]-1-yl)-3-oxopropoxy)ethyl)piperazin-1-yl)-2-methylpyrimidin-4-yl)amino)thiazole-5-carboxamide]	–	48 nM	–	–
CC1(C)C(=O)N(c2ccc(C#N)c(C(F)(F)F)c2)C(=S)N1c1ccc(C(=O)N2CCC(F)(CN3CC4(CCc5cc6c(cc5O4)C(=O)N(C4CCC(=O)NC4=O)C6)C3)CC2)c(F)c1 (stereo not drawn) [PROTAC 68]	–	–	30 nM	3.86 µM
N#Cc1ccc(O[C@H]2CC[C@H](NC(=O)c3ccc(N4CCC(CN5CC6(CCc7cc8c(cc7O6)C(=O)N(C6CCC(=O)NC6=O)C8=O)C5)CC4)nn3)CC2)cc1Cl (stereo partly drawn) [PROTAC 60]	–	–	1200 nM	0.93 µM
CC1(C)C(=O)N(c2ccc(C#N)c(C(F)(F)F)c2)C(=S)N1c1ccc(C(=O)N2CC(N3CC4(CCc5cc6c(cc5O4)C(=O)N(C4CCC(=O)NC4=O)C6=O)C3)C2)c(F)c1 (stereo not drawn) [PROTAC 77, 4-(3-(4-(3-(7′-(2,6-dioxopiperidin-3-yl)-6′,8′-dioxo-4′,6′,7′,8′-tetrahydro-3′H-spiro [azetidine-3,2′-pyrano[2,3-f]isoindole]-1-yl)azetidine-1-carbonyl)-3-fluorophenyl)-4,4-dimethyl-5-oxo-2-thioimidazolidin-1-yl)-2-(trifluoromethyl)benzonitrile]	–	–	2030 nM	6.45 µM
N#Cc1ccc(O[C@H]2CC[C@H](NC(=O)c3ccc(N4CC(N5CCC6(CCc7cc8c(cc7O6)CN(C6CCC(=O)NC6=O)C8=O)CC5)C4)nn3)CC2)cc1Cl (stereo partly drawn) [PROTAC 62]	–	–	100 nM	1.16 µM
CC1(C)C(=O)N(c2ccc(C#N)c(C(F)(F)F)c2)C(=S)N1c1ccc(C(=O)N2CC[C@@H](CN3CCC4(CC3)COc3cc5c(cc3C4)C(=O)N(C3CCC(=O)NC3=O)C5=O)C2)c(F)c1 (stereo partly drawn) [PROTAC 70, 4-(3-(4-((3S)-3-((7′-(2,6-dioxopiperidin-3-yl)-6′,8′-dioxo-4′,6′,7′,8′-tetrahydro-2′H-spiro[piperidine-4,3′-pyrano[2,3-f]isoindole]-1-yl)methyl)pyrrolidine-1-carbonyl)-3-fluorophenyl)-4,4-dimethyl-5-oxo-2-thioimidazolidin-1-yl)-2-(trifluoromethyl)benzonitrile]	–	–	9730 nM	7.06 µM
CC1(C)C(=O)N(c2ccc(C#N)c(C(F)(F)F)c2)C(=S)N1c1ccc(C(=O)N2CCC3(CCC(N4CCC5(CCc6cc7c(cc6O5)C(=O)N(C5CCC(=O)NC5=O)C7=O)CC4)CC3)CC2)c(F)c1 (stereo not drawn) [PROTAC 83, 4-(3-(4-(9-(7′-(2,6-dioxopiperidin-3-yl)-6′,8′-dioxo-4′,6′,7′,8′-tetrahydro-3′H-spiro[piperidine-4,2′-pyrano[2,3-f]isoindol]-1-yl)-3-azaspiro[5.5]undecane-3-carbonyl)-3-fluorophenyl)-4,4-dimethyl-5-oxo-2-thioimidazolidin-1-yl)-2-(trifluoromethyl)benzonitrile]	–	–	890 nM	2.63 µM
